Laboratory results published in patent US7439071B2, “Method of employing elevation of marinobufagenin in determining the presence of preeclampsia and related apparatus” (The Administrators of the Tulane Educational Fund, priority 2003, dated 2008).

Tested on: vessels from preeclamptic rats / normal pregnant rats
Assay: Perfusion of individual vessels dissected from rat models of preeclampsia and from normal pregnant rats with marinobufagenin
Description: It is elevated substantially more in preeclamptic rats.

Question: With `C[C@]12CC[C@H](O)C[C@@]1(O)CC[C@@H]1[C@@H]2CC[C@]2(C)[C@@H](c3ccc(=O)oc3)C[C@H]3O[C@]132` [marinobufagenin] as the compound, how does the “constriction of perfused vessels” value (vessels from normal pregnant animals or rats perfused with marinobufagenin) read?
Answer: Its value is “do not constrict”.

Question: And the “constriction of perfused vessels as compared with the controlled circumstance (average)” value (vessels from preeclamptic rats perfused with marinobufagenin)?
Answer: Its value is “about 36%”.
